{"source": "paper PMC4660270", "about": "(Structure (London, England : 1993), 2015)", "biological_target": "TEAD4 (Homo sapiens, UniProt Q15561)", "sequence (Q15561 217-434)": "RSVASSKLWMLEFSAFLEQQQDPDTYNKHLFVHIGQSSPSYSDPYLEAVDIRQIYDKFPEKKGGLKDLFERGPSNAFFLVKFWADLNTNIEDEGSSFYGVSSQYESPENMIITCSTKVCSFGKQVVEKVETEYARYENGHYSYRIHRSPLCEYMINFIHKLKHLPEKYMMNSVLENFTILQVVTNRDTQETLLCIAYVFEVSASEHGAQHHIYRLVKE", "assay": "ITC", "type": "binding"}
{"compound": "O=C(O)c1ccccc1Nc1cccc(C(F)(F)F)c1", "note": "[FA, flufenamic acid]", "values": [{"measurement": "Kd", "result": "~73", "unit": "µM"}]}
